Columns and labels:
[1] = tested on: breast cancer 4T1.2-luc cells (乳腺癌4T1.2-luc细胞); assay: X-ray CT of hind limb bones in mouse bone metastasis model; format: in vivo; details: 0.44mg/ml epirubicin alone, i.p.
[2] = tested on: breast cancer 4T1.2-luc cells (乳腺癌4T1.2-luc细胞); assay: Bioluminescence imaging in mouse breast cancer bone metastasis model; format: in vivo; details: 0.44mg/ml epirubicin alone, i.p., 5ml/kg, every 3 days
osteoclasts (破骨细胞) = assay: TRAP staining (osteoclasts) of bone sections in mouse bone metastasis model; format: in vivo; details: Fig. 7N
[3] = tested on: breast cancer 4T1.2-luc cells (乳腺癌4T1.2-luc细胞); assay: HE staining of bone sections in mouse bone metastasis model; format: in vivo; details: 0.44mg/ml epirubicin alone; Fig. 7H
[4] = tested on: human breast cancer cells MDA-MB-231 (人乳腺癌细胞MDA-MB-231)
[5] = tested on: breast cancer MDA-MB-231 cells (乳腺癌MDA-MB-231细胞); assay: Cell scratch (migration) assay, MDA-MB-231; format: cell-based, human; details: MDA-MB-231, scratch assay, concentration-dependent
[6] = molecular target: T1, endogenous AEP of 293L cells (293L细胞, AEP的内源性酶活性) (Homo sapiens, UniProt Q99538); assay: Endogenous AEP activity in cell lysate and medium of 293L cells; format: cell-based; details: 293L cells cultured with different doses of inhibitor
T1 construct: 验证抑制剂是否能有效抑制AEP的内源性酶活性; endogenous in cells; host or cells: 293L cells
T1 sequence (Q99538 18-433): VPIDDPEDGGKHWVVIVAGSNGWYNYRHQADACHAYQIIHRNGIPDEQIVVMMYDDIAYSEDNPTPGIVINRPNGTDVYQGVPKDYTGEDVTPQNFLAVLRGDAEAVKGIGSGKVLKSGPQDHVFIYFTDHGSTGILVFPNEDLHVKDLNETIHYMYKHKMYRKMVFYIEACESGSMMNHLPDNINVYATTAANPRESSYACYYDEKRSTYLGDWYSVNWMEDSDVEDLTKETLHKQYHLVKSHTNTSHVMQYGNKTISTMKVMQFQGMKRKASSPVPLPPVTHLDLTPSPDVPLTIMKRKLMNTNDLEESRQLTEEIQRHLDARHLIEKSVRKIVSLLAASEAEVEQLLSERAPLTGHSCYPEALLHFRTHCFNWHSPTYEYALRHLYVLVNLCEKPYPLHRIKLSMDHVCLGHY

4T1.2 cells (4T1.2细胞) = assay: Cell scratch (migration) assay, 4T1.2; format: cell-based, mouse; details: 4T1.2, scratch assay, concentration-dependent
[7] = tested on: AEP (breast cancer 4T1.2 cells, 乳腺癌4T1.2细胞); assay: Immunoblot of AEP expression in 4T1.2 cells; format: cell-based, mouse; details: 1 μM, 96h, vs control (0nM), p<0.05
[8] = tested on: breast cancer 4T1.2 cells (乳腺癌4T1.2细胞); assay: Transwell Matrigel invasion assay, 4T1.2; format: cell-based, mouse; details: 4T1.2, Transwell Matrigel, 12h, concentration-dependent
Snail = assay: Immunoblot of Snail expression in 4T1.2 cells (EMT); format: cell-based, mouse; details: 100nM and 1μM, 96h
[9] = tested on: mouse highly metastatic breast cancer cells 4T1.2 (小鼠高转移性乳腺癌细胞4T1.2)
E-cadherin = assay: Immunoblot of E-cadherin expression in 4T1.2 cells (EMT); format: cell-based, mouse; details: 100nM and 1μM, 96h
[10] = tested on: breast cancer 4T1.2 cells (乳腺癌4T1.2细胞); assay: Survival of BALB/C mice with subcutaneous 4T1.2 tumors; format: in vivo, mouse; details: inhibitor given in combination with 0.44mg/ml epirubicin
[11] = molecular target: T2, recombinant human legumain (重组人legumain蛋白(rhLegumain)) (Homo sapiens, UniProt Q99538); assay: AEP activity assay with recombinant human legumain, substrate Z-AAN-AMC; format: biochemical; details: Fig. 2E
T2 construct: 30ng/μl活化的rhLegumain在测定缓冲液; purchased 2199-CY
T2 sequence (Q99538 18-323 limits assumed): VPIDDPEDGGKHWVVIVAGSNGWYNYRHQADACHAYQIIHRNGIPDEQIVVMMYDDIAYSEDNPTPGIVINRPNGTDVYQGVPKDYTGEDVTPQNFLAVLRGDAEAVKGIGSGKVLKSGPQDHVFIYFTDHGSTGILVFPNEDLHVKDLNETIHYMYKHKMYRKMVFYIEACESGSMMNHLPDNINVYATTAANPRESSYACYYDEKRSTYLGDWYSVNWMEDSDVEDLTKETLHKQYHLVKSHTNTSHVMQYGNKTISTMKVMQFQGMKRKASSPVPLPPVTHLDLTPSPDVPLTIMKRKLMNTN

MMP-9 = assay: Immunoblot of MMP-9 expression in 4T1.2 cells (EMT); format: cell-based, mouse; details: 100nM and 1μM, 96h

| Molecule | bone structure and bone erosion (X-ray CT) [1] | bone tumor growth (bioluminescence) [2] | increase in osteoclast number in the epirubicin group compared with the 2 inhibitor-treated groups (osteoclasts (破骨细胞); 0.44mg/ml epirubicin alone) | tumor cell invasion of bone tissue (HE staining) [3] | cell viability / growth compared with control [4] | cell migration ability [5] | AEP enzyme activity in cell culture medium [6] | cell migration ability (4T1.2 cells (4T1.2细胞)) | decrease of AEP expression [7] [%] | number of invading cells [8] | Snail expression (Snail) | cell viability / growth compared with control [9] | E-cadherin expression (E-cadherin) | survival of tumor mice [10] | AEP enzyme activity over time ([11]; 100nM inhibitor vs control (0nM), p<0.05, pH5.0) | AEP enzyme activity over time ([11]; 1 μM inhibitor vs control (0nM), p<0.01, pH5.0) | increase in osteoclast number in the control group compared with the 2 inhibitor-treated groups (osteoclasts (破骨细胞); control (PBS) relative to groups given epirubicin + inhibitor) | MMP-9 expression (MMP-9) |
| --- | --- | --- | --- | --- | --- | --- | --- | --- | --- | --- | --- | --- | --- | --- | --- | --- | --- | --- |
| COc1cccc2c1C(=O)c1c(O)c3c(c(O)c1C2=O)C[C@@](O)(C(=O)CO)C[C@@H]3O[C@H]1C[C@H](N)[C@@H](O)[C@H](C)O1 [表柔比星] | 骨结构不完整,存在骨侵蚀 | 所有小鼠的胫骨近端、股骨或背侧脊柱都有肿瘤生长 | 3.6 倍 (fold) | 肿瘤细胞突破了骨组织,呈现侵袭状 |  |  |  |  |  |  |  |  |  |  |  |  |  |  |
| CH2CH[N(CH2CH3)2]CON(COCH2Cl)CH2CONH2 [化合物①] |  |  |  |  | 与对照组相差很小 | 减弱 | 能够以剂量依赖性方式抑制 | 减弱 | 82.31 | 减少各细胞的侵袭细胞数目 | 表达下调 | 与对照组相差很小 | 表达上调 | 明显延长 | 显著抑制 | 显著抑制 | 4 倍 (fold) | 表达下调 |

Source: patent publication CN114573468A, “蛋白抑制剂及其应用” (priority 2022, dated 2022)
